From PubChem BioAssay AID330 (DTP/NCI, 2004)
Where “and” joins values, the source holds several entries; their conditions need not be identical. Equal entries are not always repeated. Toxic doses and inconclusive results are not listed. How the source made its calls: active means survival T/C of 150% or more; inactive means T/C below 125% in these data.

Tested on: P388 leukemia ip, CD2F1 mice, survival T/C
Assay: NCI In Vivo Anticancer Drug Screen. Data for tumor model P388 Leukemia (intraperitoneal) in CD2F1 (CDF1) mice
Settings: endpoint: median survival time, higher = longer survival
Summary of the method: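 Mice carrying the transplanted tumor received test compound or vehicle. Survival was recorded in each group, and the value is the treated-group measurement divided by that of the vehicle-treated control group.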

[1] = dose: 50.0 mg/kg/injection, schedule: Q01DX009 (ip), vehicle: saline with Tween-80
[2] = dose: 100.0 mg/kg/injection, schedule: Q01DX009 (ip), vehicle: saline with Tween-80
[3] = dose: 200.0 mg/kg/injection, schedule: Q01DX009 (ip), vehicle: saline with Tween-80
[4] = dose: 50.0 mg/kg/injection, schedule: Q01DX005 (ip), vehicle: saline with Tween-80
[5] = dose: 100.0 mg/kg/injection, schedule: Q01DX005 (ip), vehicle: saline with Tween-80
[6] = dose: 200.0 mg/kg/injection, schedule: Q01DX005 (ip), vehicle: saline with Tween-80
[7] = dose: 100.0 mg/kg/injection, schedule: Q04DX002 (ip), vehicle: Klucel (hydroxypropylcellulose) (HPC)
[8] = dose: 200.0 mg/kg/injection, schedule: Q04DX002 (ip), vehicle: Klucel (hydroxypropylcellulose) (HPC)
[9] = dose: 60.0 mg/kg/injection, schedule: Q01DX005 (ip), vehicle: saline with Tween-80
[10] = dose: 120.0 mg/kg/injection, schedule: Q01DX005 (ip), vehicle: saline with Tween-80
[11] = dose: 240.0 mg/kg/injection, schedule: Q01DX005 (ip), vehicle: saline with Tween-80

Measured: T/C

C[C@]12CCC(=O)C=C1CC[C@@H]1[C@@H]2[C@@H](O)C[C@@]2(C)[C@H]1CC[C@]2(O)C(=O)COC(=O)COCC(=O)O
inactive: dose: 100.0 mg/kg/injection, schedule: Q04DX003 (ip), vehicle: saline with Tween-80 104 % of control | dose: 200.0 mg/kg/injection, schedule: Q04DX003 (ip), vehicle: saline with Tween-80 100 % of control | dose: 400.0 mg/kg/injection, schedule: Q04DX003 (ip), vehicle: saline with Tween-80 116 % of control

S=C(Nc1ccccc1)SCc1ccc2c(c1)OCO2
inactive: dose: 100.0 mg/kg/injection, schedule: Q01DX001 (ip), vehicle: saline 98 % of control | dose: 200.0 mg/kg/injection, schedule: Q01DX001 (ip), vehicle: saline 101 % of control | dose: 400.0 mg/kg/injection, schedule: Q01DX001 (ip), vehicle: saline 101 % of control

CC(CC(=O)c1ccccc1)=NCC(O)CN=C(C)CC(=O)c1ccccc1 (stereo not drawn)
inactive: [1] 96 % of control | [2] 94 % of control | [3] 93 % of control

C1CC[N-]CC1.C1CC[N-]CC1.C1CC[N-]CC1.[Cr+6].[N-]=C=O.[N-]=C=O.[N-]=C=O
inactive: dose: 100.0 mg/kg/injection, schedule: Q04DX002 (ip), vehicle: distilled water + alcohol 99 % of control | dose: 200.0 mg/kg/injection, schedule: Q04DX002 (ip), vehicle: distilled water + alcohol 96 % of control | dose: 400.0 mg/kg/injection, schedule: Q04DX002 (ip), vehicle: distilled water + alcohol 89 % of control

CC(=O)/C(C)=C/O
inactive: dose: 50.0 mg/kg/injection, schedule: Q01DX005 (ip), vehicle: saline 98 % of control | dose: 100.0 mg/kg/injection, schedule: Q01DX005 (ip), vehicle: saline 104 % of control | dose: 200.0 mg/kg/injection, schedule: Q01DX005 (ip), vehicle: saline 104 % of control

Nc1c(C(=O)NCCc2ccccc2)c2nc3c(C(=O)NCCc4ccccc4)cccc3oc-2cc1=O
inactive: [4] 96 % of control | [5] 89 % of control | [6] 105 % of control

C/C(=N\NC(=S)N1CCCC1)c1nccs1
inactive: dose: 12.5 mg/kg/injection, schedule: Q01DX005 (ip), vehicle: saline with Tween-80 109 % of control | dose: 25.0 mg/kg/injection, schedule: Q01DX005 (ip), vehicle: saline with Tween-80 104 % of control | [4] 108 % of control and 114 % of control

O=C(O)c1cc(Nc2ccnc3cc(Cl)ccc23)ccc1O
inactive: dose: 100.0 mg/kg/injection, schedule: Q04DX002 (ip), vehicle: saline with Tween-80 98 % of control | dose: 200.0 mg/kg/injection, schedule: Q04DX002 (ip), vehicle: saline with Tween-80 97 % of control | dose: 400.0 mg/kg/injection, schedule: Q04DX002 (ip), vehicle: saline with Tween-80 98 % of control

Cc1ccc(NCCCC2CCCN3CCCCC23)c2c(=O)c3cc(O)ccc3sc12 (stereo not drawn)
inactive: dose: 25.0 mg/kg/injection, schedule: Q01DX001 (ip), vehicle: saline with Tween-80 99 % of control | dose: 50.0 mg/kg/injection, schedule: Q01DX001 (ip), vehicle: saline with Tween-80 98 % of control | dose: 100.0 mg/kg/injection, schedule: Q01DX001 (ip), vehicle: saline with Tween-80 100 % of control

COCCCn1c(C(Cl)(Cl)Cl)nn2c(=O)c3ccccc3nc2c1=O
inactive: dose: 6.25 mg/kg/injection, schedule: Q01DX009 (ip), vehicle: saline with Tween-80 96 % of control | dose: 12.5 mg/kg/injection, schedule: Q01DX009 (ip), vehicle: saline with Tween-80 91 % of control | dose: 25.0 mg/kg/injection, schedule: Q01DX009 (ip), vehicle: saline with Tween-80 100 % of control

COc1cc(/C=N/O)c(SC)cc1OC
inactive: [7] 110 % of control | [8] 111 % of control

COc1cc2c(cc1OC)[C@@]1(C[C@H]1CO)OCC2
inactive: [7] 100 % of control | [8] 98 % of control | dose: 400.0 mg/kg/injection, schedule: Q04DX002 (ip), vehicle: Klucel (hydroxypropylcellulose) (HPC) 95 % of control

CN1NC(c2ccccc2)=C(C#N)C(=O)CC1c1cccs1 (stereo not drawn)
inactive: [9] 95 % of control | [10] 88 % of control | [11] 96 % of control

Nc1c(/C=C/c2ccccc2)[nH]c(=O)[nH]c1=O
inactive: dose: 25.0 mg/kg/injection, schedule: Q04DX002 (ip), vehicle: saline 104 % of control | dose: 50.0 mg/kg/injection, schedule: Q04DX002 (ip), vehicle: saline 105 % of control | dose: 100.0 mg/kg/injection, schedule: Q04DX002 (ip), vehicle: saline 121 % of control and 88 % of control

COc1ccc(C2=NCCc3cc(OC)c(OC)cc32)cc1OC
inactive: dose: 6.25 mg/kg/injection, schedule: Q01DX009 (ip), vehicle: water 111 % of control | dose: 12.5 mg/kg/injection, schedule: Q01DX009 (ip), vehicle: water 108 % of control | dose: 25.0 mg/kg/injection, schedule: Q01DX009 (ip), vehicle: water 118 % of control | dose: 50.0 mg/kg/injection, schedule: Q01DX009 (ip), vehicle: water 105 % of control | dose: 100.0 mg/kg/injection, schedule: Q01DX009 (ip), vehicle: water 111 % of control

COC(=O)C1c2ccccc2CC(=O)N1NC(C)=O (stereo not drawn)
inactive: dose: 50.0 mg/kg/injection, schedule: Q01DX009 (ip), vehicle: Klucel (hydroxypropylcellulose) (HPC) 104 % of control | dose: 100.0 mg/kg/injection, schedule: Q01DX009 (ip), vehicle: Klucel (hydroxypropylcellulose) (HPC) 101 % of control

CN(CCCNc1c2ccccc2nc2ccccc12)CCCNc1c2ccccc2nc2ccccc12
inactive: dose: 1.25 mg/kg/injection, schedule: Q01DX009 (ip), vehicle: other 115 % of control

C=C/C=C/NC(=O)N1CCCC1
inactive: dose: 100.0 mg/kg/injection, schedule: Q04DX002 (ip), vehicle: suspension in saline 102 % of control | dose: 200.0 mg/kg/injection, schedule: Q04DX002 (ip), vehicle: suspension in saline 102 % of control | dose: 400.0 mg/kg/injection, schedule: Q04DX002 (ip), vehicle: suspension in saline 105 % of control

O=C(CN1CCCCC1)Nc1ccc(I)cc1
inactive: [1] 104 % of control | [2] 107 % of control | [3] 114 % of control

COC(=O)c1c(C(=O)OC)c(-c2ccc(Cl)c(Cl)c2)n2c1CCC2
inactive: [2] 87 % of control | [3] 89 % of control | dose: 400.0 mg/kg/injection, schedule: Q01DX009 (ip), vehicle: saline with Tween-80 88 % of control

C=CCn1c(C)nc2c(cnn2C)c1=O
inactive: dose: 50.0 mg/kg/injection, schedule: Q01DX005 (ip), vehicle: Klucel (hydroxypropylcellulose) (HPC) 101 % of control | dose: 100.0 mg/kg/injection, schedule: Q01DX005 (ip), vehicle: Klucel (hydroxypropylcellulose) (HPC) 110 % of control | dose: 200.0 mg/kg/injection, schedule: Q01DX005 (ip), vehicle: Klucel (hydroxypropylcellulose) (HPC) 104 % of control

O=C1C2=C(C(=O)C3=C1C1C=CC3C1)C1C=CC2C1
inactive: dose: 100.0 mg/kg/injection, schedule: Q04DX003 (ip), vehicle: Klucel (hydroxypropylcellulose) (HPC) 118 % of control | dose: 200.0 mg/kg/injection, schedule: Q04DX003 (ip), vehicle: Klucel (hydroxypropylcellulose) (HPC) 102 % of control | dose: 400.0 mg/kg/injection, schedule: Q04DX003 (ip), vehicle: Klucel (hydroxypropylcellulose) (HPC) 96 % of control

O=C(O)C1CCC(=O)N1Cc1csc(-c2ccccc2)n1 (stereo not drawn)
inactive: [9] 103 % of control | [10] 93 % of control | [11] 99 % of control

COc1cccc2c1C(=O)c1c(O)c3c(c(O)c1C2=O)CC(O)(C(C)=O)CC3OC1CC(NCC2OC(C(=O)O)C(O)C2O)C(O)C(C)O1 (stereo not drawn)
inactive: dose: 3.13 mg/kg/injection, schedule: Q04DX003 (ip), vehicle: water 99 % of control | dose: 6.25 mg/kg/injection, schedule: Q04DX003 (ip), vehicle: water 102 % of control | dose: 12.5 mg/kg/injection, schedule: Q04DX003 (ip), vehicle: water 109 % of control | dose: 25.0 mg/kg/injection, schedule: Q04DX003 (ip), vehicle: water 116 % of control | dose: 50.0 mg/kg/injection, schedule: Q04DX003 (ip), vehicle: water 110 % of control

CC(Oc1ccc(Cl)cc1Cl)C(=O)NC(Cc1ccccc1)C(=O)O (stereo not drawn)
inactive: [4] 102 % of control | [5] 110 % of control | [6] 102 % of control

CCC1=[N+](C)C(C)(C)CC(C)O1 (stereo not drawn)
inactive: dose: 12.5 mg/kg/injection, schedule: Q04DX003 (ip), vehicle: saline with Tween-80 100 % of control | dose: 25.0 mg/kg/injection, schedule: Q04DX003 (ip), vehicle: saline with Tween-80 100 % of control | dose: 50.0 mg/kg/injection, schedule: Q04DX003 (ip), vehicle: saline with Tween-80 95 % of control
